Key:
[1] = system: CD4+ CD25− T cells activated in Th17-priming conditions; type: cell-based, mouse; settings: 10 nM HF vs MAZ1310, mean ± SD, triplicate
[2] = system: Th17 differentiation of CD4+ CD25− T cells; test: Th17 differentiation (IL-17+ IFNγ− cells) of T cells activated with TGFβ plus IL-6; type: cell-based; settings: Mus musculus, T-cell, 96 h; murine CD4+ CD25− T cells, restimulation on day 4-5; ± 0.4 nM; read-out: IC50 of repression of Th17 differentiation (percentage of IL-17+ IFNγ− cells)

## O=C(CC1NCCCC1O)Cn1cnc2cc(Br)c(Cl)cc2c1=O (racemic) [HF, 7-bromo-6-chloro-3-[3-(3-hydroxy-2-piperidinyl)-2-oxopropyl]-4(3H)-quinazolinone]
[1]; 3 hr
  Xist transcript, fold increase HF vs. MAZ1310-3 hr: 3.5 ± 1.7 fold
[1]; 6 hr
  Aars transcript, fold increase HF vs. MAZ1310-6 hr: 2.6 ± 0.2 fold
  Aff1 transcript, fold increase HF vs. MAZ1310-6 hr: 2.6 ± 0.3 fold
  Aldh18a1 transcript, fold increase HF vs. MAZ1310-6 hr: 2.7 ± 0.2 fold
  Asns transcript, fold increase HF vs. MAZ1310-6 hr: 7.1 ± 0.5 fold
  Atf3 transcript, fold increase HF vs. MAZ1310-6 hr: 3.2 ± 0.5 fold
  Atf5 transcript, fold increase HF vs. MAZ1310-6 hr: 8.9 ± 1.0 fold
  Cars transcript, fold increase HF vs. MAZ1310-6 hr: 2.2 ± 0.3 fold
  Cd274 transcript, fold increase HF vs. MAZ1310-6 hr: 2.0 ± 0.1 fold
  Cebpb transcript, fold increase HF vs. MAZ1310-6 hr: 8.0 ± 0.2 fold
  Cebpg transcript, fold increase HF vs. MAZ1310-6 hr: 3.1 ± 0.5 fold
  Chd2 transcript, fold increase HF vs. MAZ1310-6 hr: 2.5 ± 0.5 fold
  Cldn12 transcript, fold increase HF vs. MAZ1310-6 hr: 4.6 ± 0.5 fold
  Clic4 transcript, fold increase HF vs. MAZ1310-6 hr: 2.8 ± 0.2 fold
  Cth transcript, fold increase HF vs. MAZ1310-6 hr: 16.0 ± 1.6 fold
  Cxcl10 transcript, fold increase HF vs. MAZ1310-6 hr: 2.1 ± 0.1 fold
  D8Ertd56e transcript, fold increase HF vs. MAZ1310-6 hr: 3.1 ± 0.8 fold
  Ddit3 transcript, fold increase HF vs. MAZ1310-6 hr: 5.0 ± 0.7 fold
  Et4Ebp1 transcript, fold increase HF vs. MAZ1310-6 hr: 5.3 ± 0.3 fold
  Gpt2 transcript, fold increase HF vs. MAZ1310-6 hr: 16.7 ± 2.2 fold
  Herpud1 transcript, fold increase HF vs. MAZ1310-6 hr: 2.7 ± 0.1 fold
  Icam1 transcript, fold increase HF vs. MAZ1310-6 hr: 2.8 ± 0.3 fold
  Irf1 transcript, fold increase HF vs. MAZ1310-6 hr: 2.6 ± 0.2 fold
  Lers transcript, fold increase HF vs. MAZ1310-6 hr: 2.1 ± 0.0 fold
  Mpa2l transcript, fold increase HF vs. MAZ1310-6 hr: 7.3 ± 1.7 fold
  Ncoa7 transcript, fold increase HF vs. MAZ1310-6 hr: 3.2 ± 0.5 fold
  Nfkbiz transcript, fold increase HF vs. MAZ1310-6 hr: 1.9 ± 0.3 fold
  Past1 transcript, fold increase HF vs. MAZ1310-6 hr: 2.6 ± 0.0 fold
  Pck2 transcript, fold increase HF vs. MAZ1310-6 hr: 7.4 ± 0.9 fold
  Pdcd1lg2 transcript, fold increase HF vs. MAZ1310-6 hr: 2.5 ± 0.3 fold
  Phgdh transcript, fold increase HF vs. MAZ1310-6 hr: 4.2 ± 0.3 fold
  Psph transcript, fold increase HF vs. MAZ1310-6 hr: 3.4 ± 0.3 fold
  Pvr transcript, fold increase HF vs. MAZ1310-6 hr: 2.0 ± 0.1 fold
  Pycr1 transcript, fold increase HF vs. MAZ1310-6 hr: 6.6 ± 0.4 fold
  Pycs transcript, fold increase HF vs. MAZ1310-6 hr: 2.3 ± 0.1 fold
  Sars1 transcript, fold increase HF vs. MAZ1310-6 hr: 2.3 ± 0.1 fold
  Sesn2 transcript, fold increase HF vs. MAZ1310-6 hr: 2.3 ± 0.2 fold
  Slamf7 transcript, fold increase HF vs. MAZ1310-6 hr: 2.1 ± 0.2 fold
  Slc1a4 transcript, fold increase HF vs. MAZ1310-6 hr: 4.6 ± 0.4 fold
  Slc6a9 transcript, fold increase HF vs. MAZ1310-6 hr: 5.7 ± 0.6 fold
  Slc7a3 transcript, fold increase HF vs. MAZ1310-6 hr: 6.5 ± 0.9 fold
  Slc14a1 transcript, fold increase HF vs. MAZ1310-6 hr: 6.6 ± 0.4 fold
  Trib3 transcript, fold increase HF vs. MAZ1310-6 hr: 18.5 ± 8.5 fold
  Trim12 transcript, fold increase HF vs. MAZ1310-6 hr: 4.9 ± 0.7 fold
  Vegfa transcript, fold increase HF vs. MAZ1310-6 hr: 5.8 ± 0.5 fold
  Xist transcript, fold increase HF vs. MAZ1310-6 hr: 2.1 ± 0.7 fold
[2]
  IC50: 3.6 nM
